This note sets out measurements from ChEMBL document CHEMBL1131128, “Structure-based design of cathepsin K inhibitors containing a benzyloxy-substituted benzoyl peptidomimetic” (J Med Chem, 1998).

Test [1] concerns the target T1, Cathepsin K (Homo sapiens, UniProt P43235).
T1 sequence (P43235 whole entry): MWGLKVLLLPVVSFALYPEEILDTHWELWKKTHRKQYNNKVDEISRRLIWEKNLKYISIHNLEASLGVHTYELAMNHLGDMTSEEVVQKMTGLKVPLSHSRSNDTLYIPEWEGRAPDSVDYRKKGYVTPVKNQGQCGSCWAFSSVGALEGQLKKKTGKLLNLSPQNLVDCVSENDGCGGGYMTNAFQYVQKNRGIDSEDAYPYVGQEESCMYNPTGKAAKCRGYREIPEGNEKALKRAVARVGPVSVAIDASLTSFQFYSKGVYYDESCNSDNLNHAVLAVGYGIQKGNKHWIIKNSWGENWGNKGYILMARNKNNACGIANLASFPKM
Nature of the test: Relative binding affinity was measured for Cathepsin K. Particulars: read-out: Ki app.

Test [2] has as its target T2, Cathepsin K (Homo sapiens) (UniProt P43235).
T2 sequence (whole entry): T1 sequence (P43235 whole entry)
Put plainly: Second order rate constant was measured for the inhibition of Cathepsin K.

With `CC(C)C[C@H](NC(=O)OCc1ccccc1)C(=O)NNC(=O)NNC(=O)[C@H](CC(C)C)NC(=O)OCc1ccccc1`, the Ki in test [1] came out at 0.7 nM. The molecule further came in with a second-order inhibition rate constant (kobs/[I]) in test [2] of 3.1e+06 M⁻¹ s⁻¹.

Consider `CC(C)C[C@H](NC(=O)OCc1ccccc1)C(=O)NNC(=O)NNC(=O)c1ccccc1OCc1ccccc1`, for which, in test [1], the Ki was found to be 12 nM. In test [2], this molecule came in with a second-order inhibition rate constant (kobs/[I]) of 318000 M⁻¹ s⁻¹.

Turning to `CC(C)C[C@H](NC(=O)OCc1ccccc1)C(=O)NNC(=O)NNC(=O)c1ccc(OCc2ccccc2)cc1`, the Ki in test [1] amounted to 100 nM. In test [2], the second-order inhibition rate constant (kobs/[I]) was found to be 44000 M⁻¹ s⁻¹.

As to `CC(C)C[C@H](NC(=O)OCc1ccccc1)C(=O)NNC(=O)NNC(=O)c1cccc(OCc2ccccc2)c1`, the Ki in test [1] worked out at 27 nM. The same molecule came in with a second-order inhibition rate constant (kobs/[I]) in test [2] of 224000 M⁻¹ s⁻¹.

`CCC[C@H](NC(=O)OCc1ccccc1)C(=O)NNC(=O)NNC(=O)[C@H](CC(C)C)NC(=O)OCc1ccccc1`: the Ki in test [1] was found to be 0.8 nM. Also, in test [2], the second-order inhibition rate constant (kobs/[I]) is 4e+06 M⁻¹ s⁻¹.

Turning to `CC[C@H](NC(=O)OCc1ccccc1)C(=O)NNC(=O)NNC(=O)[C@H](CC(C)C)NC(=O)OCc1ccccc1`, in test [1], the Ki stood at 3.4 nM. The molecule also displayed a second-order inhibition rate constant (kobs/[I]) in test [2] of 490000 M⁻¹ s⁻¹.

Regarding `CC(C)C[C@H](NC(=O)OCc1ccccc1)C(=O)NNC(=O)NNC(=O)[C@H](C)NC(=O)OCc1ccccc1`, the Ki in test [1] is 1 nM. The same molecule came in with a second-order inhibition rate constant (kobs/[I]) in test [2] of 685000 M⁻¹ s⁻¹.

On to `CC(C)C[C@H](NC(=O)OCc1ccccc1)C(=O)NNC(=O)NNC(=O)c1ccccc1`, for which, in test [1], the Ki came to 120 nM. The same molecule came in with a second-order inhibition rate constant (kobs/[I]) in test [2] of 38000 M⁻¹ s⁻¹.
